Test results from PubChem BioAssay (NCI).
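Results reflect a 48-hour exposure of cells in 96-well plates to compound at five concentrations. GI50: concentration for 50% inhibition of growth. TGI denotes the concentration required for complete inhibition of growth.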

Legend:
Assay in all cases: inhibition of tumour cell growth, NCI panel, 48 h
[1] = system: HOP-92 NSCLC
[2] = system: M14 melanoma
[3] = system: SNB-19 CNS
[4] = system: SK-MEL-5 melanoma
[5] = system: KM12 colon
[6] = system: SW-620 colon
[7] = system: U251 CNS
[8] = system: K-562 leukemia
[9] = system: UO-31 renal
[10] = system: LOX IMVI melanoma
[11] = system: MDA-MB-231 breast
[12] = system: SNB-75 CNS
[13] = system: NCI/ADR-RES ovarian
[14] = system: HL-60(TB) leukemia
[15] = system: CCRF-CEM leukemia
[16] = system: OVCAR-4 ovarian
[17] = system: CAKI-1 renal
[18] = system: OVCAR-3 ovarian
[19] = system: OVCAR-8 ovarian
[20] = system: MALME-3M melanoma
[21] = system: 786-0 renal
[22] = system: SF-539 CNS
[23] = system: UACC-62 melanoma
[24] = system: SK-MEL-2 melanoma
[25] = system: NCI-H23 lung
[26] = system: SK-OV-3 ovarian
[27] = system: TK-10 renal
[28] = system: HS 578T breast
[29] = system: IGROV1 ovarian

## O=C1CCC2=C3C4CCCCC4C(=O)C4CCCC(OC2C1)C34 (stereo unspecified)
[1]
  GI50: 2430 nM
  TGI: 8950 nM
[2]
  GI50: 1280 nM
  TGI: 4230 nM
[3]
  GI50: 2590 nM
  TGI: > 100000 nM
[4]
  GI50: 729 nM
  TGI: 2350 nM
[5]
  GI50: 1750 nM
  TGI: 5460 nM
[6]
  GI50: 394 nM
  TGI: 3130 nM
[7]
  GI50: 428 nM
  TGI: > 20200 nM
[8]
  GI50: 493 nM
[9]
  GI50: 487 nM
  TGI: 3880 nM
[10]
  GI50: 278 nM
[11]
  GI50: 1470 nM
  TGI: > 27600 nM
[12]
  GI50: 5230 nM
  TGI: > 43800 nM
[13]
  GI50: 360 nM
  TGI: 4060 nM
[14]
  GI50: 170 nM
  TGI: 998 nM
[15]
  GI50: 1340 nM
  TGI: 8080 nM
[16]
  GI50: 1790 nM
  TGI: > 25100 nM
[17]
  GI50: 1340 nM
  TGI: 5470 nM
[18]
  GI50: 428 nM
  TGI: 2730 nM
[19]
  GI50: 397 nM
  TGI: 23700 nM
[20]
  GI50: 418 nM
  TGI: 1980 nM
[21]
  GI50: 2510 nM
  TGI: > 29800 nM
[22]
  GI50: 2440 nM
  TGI: > 100000 nM
[23]
  GI50: 1690 nM
  TGI: 4320 nM
[24]
  GI50: 1380 nM
  TGI: 4140 nM
[25]
  GI50: 417 nM
  TGI: 2730 nM
[26]
  GI50: 5180 nM
  TGI: > 100000 nM
[27]
  GI50: 6360 nM
  TGI: > 29500 nM
[28]
  GI50: 1960 nM
  TGI: 6880 nM
[29]
  GI50: 1640 nM
  TGI: 6150 nM
